Measurements from a melting point compilation (Tetko et al.; mined from patent text by program, amines drawn as free bases though some values may be those of a salt).

melting point [°C]	Structure (SMILES)
208 to 210	O=C1CCC(N2C(=O)c3ccc(CNC(=O)NC4CCCCC4)cc3C2=O)C(=O)N1 (stereo not given)
69 to 70	CN(C)CC1Cc2ccccc2N(S(C)(=O)=O)C1 (stereo not given)
144	O=C(O)CCCCCN1C(=O)c2cccc([N+](=O)[O-])c2C1=O
169 to 170	O=C1CCCC(=O)c2cc(OCc3ccccc3)ccc2N1
122 to 123	CC(C)=CCOc1ccc(C(=O)C=Cc2ccc(C(F)(F)F)cc2)c(O)c1
308 to 311	O=S1(=O)c2ccccc2N(c2ccc(O)cc2)c2ccccc21
196 to 199	COc1cc(C(N)=S)c2c(c1OC)C(=O)CC2
76	Clc1nc2c(c(N3CCCC3)n1)SCCC2
122 to 123	O=C(NCc1ccccc1)c1ccccc1I
79 to 80	CC(O)(C(=O)Nc1cc(S(=O)(=O)c2ccccc2)ccc1Cl)C(F)(F)F (stereo not given)
61 to 63	C[C@@H](CSC(F)(F)C(F)F)[C@](O)(Cn1cncn1)c1ccc(Cl)cc1Cl
199 to 201	CC(C)COc1cc(N(C)C)ccc1C(=O)c1ccccc1C(=O)O
138 to 140	COC(=O)c1ccc(Cc2cccc3ccc(N)cc23)c(OC)c1
109 to 111	C#CCN(Cc1cc2c(=O)n(C)c(CO)nc2cc1Cl)c1ccc(C(=O)OC(C)(C)C)cc1
183	Cc1cc(N)nc(N)n1
221 to 222	Cc1ncsc1CCOc1ccc(NC(=O)c2cc(F)cc(N3CCCCC3)c2)c2ccccc12
194 to 198	Nc1ncnc2c1c(-c1ccccc1)cn2-c1cccc(C(=O)NCCO)c1
142 to 144	COc1nc2ccccc2nc1N(C)C(=O)N1CCN(c2cc(C)cc(C)c2)CC1
90 to 92	CC(O)(CCF)c1ccc(-c2ccc(F)cc2)cc1 (stereo not given)
183 to 185	CCOC(=O)c1ccc(NC(=O)c2c(OC)cccc2OC)cc1
106 to 108	CC(Oc1ccc(Oc2ncc(Cl)cc2Cl)cc1)C(=O)N1CCCO1 (stereo not given)
192 to 193	CC(C)(C)OC(=O)NCc1cccc(C(=O)N[C@H]2C[C@H](C(=O)O)Nc3cc(Cl)cc(Cl)c32)c1 (relative stereo)
176 to 180	NS(=O)(=O)c1cc2[nH]c(CCCCc3ccccc3)nc2cc1Cl
124 to 126	CC(C)c1cccc(C(C)C)c1NC(=O)CC(=O)c1ccccc1

melting point [°C]	Structure (SMILES)
196 to 197	CCNC(=O)CCCNC(=O)CCCNC(=O)CCCNC(=O)CCCNC(=O)OC(C)(C)C
247 to 248	CN(C)c1ccc(C(=O)Nc2cn3cc(-n4ccnc4)ccc3n2)cc1
320 to 321	O=C(O)c1ccc2c(c1)C(=O)c1cc3c(cc1OC2)OCO3
122	NC(=O)c1ccc(F)c2c1CC(NCCCc1c[nH]c3ccc(F)cc13)CO2 (stereo not given)
175 to 177	CCCCOC(=O)N1CCN(C(=O)c2cc(S(=O)(=O)N(C)C)ccc2N)CC1
113 to 114	O=C(O)CCOc1cccc2c1Cc1sc(SCCC(c3ccccc3)c3ccccc3)nc1-2
133 to 134	CCOC(=O)CNC(=O)c1nnc2ccc(Cl)nn12
81 to 82	C=C(CC1(C)C(=O)CCC1=O)C1=CCCc2cc(OC)ccc21
81 to 82	Cc1c(I)sc(I)c1Br
151 to 154	CCCCc1ncc(C(=O)OCC)c(=O)n1Cc1ccc(-c2ccccc2-c2nc(=O)o[nH]2)cc1
181 to 183	CCOC(=O)c1ncc2[nH]c3ccccc3c2c1CCOC
300	N#Cc1c(I)c(C(=O)NCCO)c(I)c(C(=O)NCCO)c1I
96 to 98	CC(C)(C)COC(=O)c1cc(Cl)c(F)c(Cl)c1
150 to 152	CCCCCCCCC(=O)Nc1ccn(C2OC(CO)C(O)C2O)c(=O)n1 (stereo not given)
274 to 276	CN1CCN(c2ccc(Nc3ncc4c(n3)S/C(=C/c3ccc(C#N)cc3)C(=O)N4)cc2)CC1
112	CO[C@H](C(=O)O)c1cccc([N+](=O)[O-])c1
127 to 133	CCc1cccc(C)c1C(=O)N[C@@H](Cc1ccc(-c2c(C)n(C)c(=O)n(C)c2=O)cc1)C(=O)O
101 to 102	COc1ccc(CCNCC(O)COc2cccc3nn(Cc4ccccc4)cc23)cc1OC (stereo not given)
34 to 36	CC(C)(C)OC(=O)N1CC(O)C(N=[N+]=[N-])C1 (stereo not given)
238 to 239	NC(=O)c1c(Cl)c(-c2ccccc2)n2c1CN(C(=O)c1ccco1)CC2
176 to 178	CCCn1nc(C(F)F)nc1Cc1ccc(-c2ccccc2-c2nnn[nH]2)nc1
178 to 181	O=C(O)Cc1ccc2c(c1)Cc1ccccc1CC2=O
168 to 169	COc1ccc(C2CC3(C)C(CC45OCCOC43OCCO5)C3CC(C)C4(O)CCCCC4C23)cc1 (stereo not given)
160	Cc1cccnc1COc1nn2c(-c3ccccc3)nnc2cc1N1CCCCC1

melting point [°C]	Structure (SMILES)
121 to 122	C=C(C)COc1ccc(C(=O)C=Cc2ccc(Br)cc2)c(O)c1
184 to 185	CC(C)(C)C(=O)c1c[nH]c2ncc(-c3cccc(OCc4ccccc4)c3)nc12
165 to 166	O=C(NCCBr)C1=C(C(=O)Nc2ccc(Cl)cc2F)CCCC1
108 to 111	Clc1ccc(Oc2ccccc2Oc2ncc(Cl)cn2)nc1
157 to 159	O=[N+]([O-])c1cccc(-c2cc(Cc3ccc(F)cc3)cc(/C=N/O)c2O)c1
105 to 106	C[C@@H](n1cncn1)[C@](O)(Cn1cncn1)c1ccccc1F
188 to 189	O=C1OC2(CCC2)C(O)=C1c1ccccc1
116 to 117	COC(=O)c1nc(N=C=S)ccc1Oc1nc(OC)cc(OC)n1
300 to 305	O=C1C2=C(SCCS2)C(O)N1c1ccc2c(Cl)ccnc2n1 (stereo not given)
195 to 196	CC(C)n1c(=O)n(C(N)=O)c2ccccc21
161	COc1ccc(Cn2[nH]c(N)cc2=O)cc1
198	Nc1c(Cl)cc(-c2nn(C3CCN(Cc4ccc(C(F)(F)F)cc4)CC3)c(=O)o2)c2c1OCCO2
115 to 125	CC(=Cc1ccc(-c2ccccc2)s1)c1ccccc1
192 to 195	O=C(Nc1cccc(-c2c(-c3ccccc3)cnc3c(C(F)(F)F)cccc23)c1)Nc1ccccc1Cl
271 to 273	COc1cc(C#N)ccc1-c1cc(-c2cc(C#N)ccc2OC)on1
231 to 233	CC(C)NC(=O)NOCc1nc2c(N)nc3ccccc3c2n1CC(C)(C)O
31 to 33	CCCCCCC1(CCCCCC)c2ccccc2-c2ccccc21
40 to 43	CCCCCC(O)CNC (stereo not given)
155 to 160	Cc1c(NN)nc(N)nc1-c1ccco1
147	O=C(Cl)c1cc2n(c1)CCc1ccccc1C2=O
218 to 221	Cc1nc(N2CCN(CCCc3ccccc3)C2=O)sc1C(=O)O
173 to 174	CC(=O)OCCn1ccc(=O)c(OCc2ccccc2)c1C(OC(C)=O)c1ccccc1F (stereo not given)
206 to 208	COC(=O)c1cc(I)ccc1NC=C1C(=O)OC(C)(C)OC1=O
77 to 94	COc1cc(N2CCCN(C3CCN(CCO)CC3)CC2)ccc1Nc1ncc2ccc(-c3ccccc3OC)n2n1

melting point [°C]	Structure (SMILES)
232 to 234	O=c1c(Cc2ccncc2)c(-c2ccc(Br)cc2)[nH]c2ccccc12
122 to 124	COC(=O)C(C)NC(=O)CCc1ccc(C(=O)CCl)cc1 (stereo not given)
82	O=C(O)Cc1ccc(OCCNC(=O)C2Cc3ccccc3N2S(=O)(=O)c2ccc(-c3cccc(C(F)(F)F)c3)c(F)c2)cc1 (stereo not given)
153 to 156	O=C(CC1CCCC1)c1ccc(Cn2ccc3ncnc-3c2)cc1
213 to 214	Cc1cccnc1C(CO)COc1ccc(CC2SC(=N)NC2=O)cc1 (stereo not given)
235 to 240	O=C(NCc1ccc(Cl)cc1)c1cn2c3c(cc(CN4CCOCC4)cc3c1=O)N=C(NCc1ccccc1)C2
> 275	C[C@H](C(=O)O)n1nc(O)c2[nH]c3cc(Cl)ccc3c(=O)c2c1=O
106 to 108	Cc1ccc2c(c1)CN(C)C(c1ccc(C(C)(C)C)cc1)C2 (stereo not given)
124 to 135	O=C(O)c1ccc(C(F)(F)C(F)(F)F)cc1[N+](=O)[O-]
> 200	O=C(NC1CN(C(=O)Nc2ccc(OC(F)(F)F)c(Cl)c2)N=C1c1ccc(Br)cc1)c1ccc(Cl)cc1 (stereo not given)
228 to 230	O=S(=O)(O)CCCCCCN1CCN(Cc2ccccc2)CC1
114	Fc1ccc(Cn2c(SC3CCNCC3)nc3cncnc32)cc1
202	O=C(N[C@H]1CC[C@H](CCN2CCN(c3nccc4c3CCO4)CC2)CC1)C1CCC1
84 to 85	Cc1ccc(-c2nc3ccccc3s2)cc1
211 to 213	CC[C@H]1CN(c2c(F)cc3c(=O)c(C(=O)O)cn4c3c2OC[C@@H]4C)C[C@H]1NC
90 to 93	CCCn1cc(Cc2ccc(C(=O)NS(=O)(=O)c3ccccc3C)cc2OC)c2cc(CCC(C)C(=O)N(C)C)ccc21 (stereo not given)
> 250	CC1CCc2c(-n3ccnc3)c(F)cc3c(=O)c(C(=O)O)cn1c23 (stereo not given)
185 to 187	CCCCS(=O)(=O)Nc1nc(CN2CCN(C(c3ccccc3)c3ccccc3)CC2)cs1
68	COc1cc(C=O)cc(OC)c1O[Si](C)(C)C(C)(C)C
56 to 58	CC(C)CCC(C)(C#N)N=NC(C)(C#N)CCC(C)C (stereo not given)
270 to 273	CSc1cnc2cc(-c3ccccc3Cl)sc2c1O
238	N#CC1=C(c2c[nH]c3ccccc23)Nc2n[nH]cc2C1c1cccc2nonc12 (stereo not given)
157 to 160	Cc1ccc(Oc2ccccc2-n2cnnn2)c(O)c1
179 to 181	CCCCCC(=O)OCC(CO)CCn1cnc2c(=O)[nH]c(N)nc21 (stereo not given)

Structure (SMILES)	melting point [°C]
N#Cc1c(F)c(F)c(O)c(F)c1F	128 to 129
CCCCCc1cc(O)c2c3c(c(=O)oc2c1)SC(C)(C)C3	203 to 206
CCC(C(=O)C(C)C(O)C(C)CCc1c(Cl)cc(C)c(O)c1C(=O)O)C1OC(CC)(C2CCC(O)(CC)C(C)O2)CC1C (stereo not given)	183 to 185
CCOC(=O)C=CC(=O)Nc1ccc(Cl)cc1C(=O)c1ccccc1Cl	113 to 114
